Results on four compounds are retold here after US4183909A, “Phenylglycine-containing new peptides with gastrine effects and a process for the preparation thereof” (Richter Gedeon Vegyeszeti Gyar Rt., priority 1976, dated 1980).

Test [1] deals with gastric acid secretion. The conditions noted are these: in vivo; cited from earlier work.
The test system of test [2] is gastric acid secretion. The experiment in a line: Gastric acid secretion increasing effect, administered parenterally or enterally (methods of Ghosh and Schild and of Lai, modified by Pissidis and Clark). The class given is in vivo. As to the method:
The biological activities of the new compounds according to the invention were tested by the methods of Ghosh and Schild (Br. J. Pharmac. Chemoth. 13, 54 1958) and Lai (Gut 5, 327 1964), modified by Pissidis and Clark (Gut 8, 196 1967). The pharmacological tests have shown that the new compounds, when administered intravenously, increase the gastric acid secretion to a great extent. […] It is also remarkable that some of the new compounds highly increase the gastric acid secretion after resorption from the rectum.

Square brackets hold non-standard residues; d marks the D form. Peptide text beside a SMILES is read from it. * marks the point of attachment. dPhg = N[C@@H](C(=O)O)c1ccccc1; Phg = N[C@H](C(=O)O)c1ccccc1; X1 = CC(C)(C)OC(=O)NOCC(=O)*

As to H-Trp-Met-Asp-Phe-NH2, in the test with gastric acid secretion [1], the “Gastric acid secretion stimulating effect relative to the total hormone (gastrin)” value is given as “lower by about one order of magnitude”.

Take `CSCC[C@H](NC(=O)[C@H](Cc1c[nH]c2ccccc12)NC(=O)CONC(=O)OC(C)(C)C)C(=O)N[C@@H](CC(=O)O)C(=O)N[C@H](C(N)=O)c1ccccc1` [BOC-OGly Met L, 2-(tert.-Butoxycarbonyl-aminooxy)-acetyl-L-tryptophyl-L-methionyl-L-aspartyl-L-phenylglycine-amide] (X1-WMD[Phg]-NH2): the “Gastric acid secretion increasing effect in comparison with that of a 0.2 μg/100 g i.v. dosage of pentagastrin” value was 116 in the test with gastric acid secretion [2] (2.0 μg i.v.), 124 with gastric acid secretion [2] (20 μg intestinal (text: 20 μg/100 g body weight)) and 38 in the test on gastric acid secretion [2] (20 μg rectal).

With `CSCC[C@H](NC(=O)[C@H](Cc1c[nH]c2ccccc12)NC(=O)CONC(=O)OC(C)(C)C)C(=O)N[C@@H](CC(=O)O)C(=O)N[C@@H](C(N)=O)c1ccccc1` [BOC-OGly Met D, 2-(tert.-Butoxycarbonyl-aminooxy)-acetyl-L-tryptophyl-L-methionyl-L-aspartyl-D-phenylglycine-amide] (X1-WMD[dPhg]-NH2), the “Gastric acid secretion increasing effect in comparison with that of a 0.2 μg/100 g i.v. dosage of pentagastrin” value came to 28 with gastric acid secretion [2] (0.2 μg i.v.) and 50 in the test on gastric acid secretion [2] (2.0 μg i.v.). For the compound `CSCC[C@H](NC(=O)[C@H](Cc1c[nH]c2ccccc12)NC(=O)CCNC(=O)OC(C)(C)C)C(=O)N[C@@H](CC(=O)O)C(=O)N[C@@H](Cc1ccccc1)C(N)=O` [pentagastrin, BOC-β-Ala-Trp-Met-Asp-Phe-NH2, reference compound], the “Effect on gastric acid secretion” value in the test with gastric acid secretion [2] (administered enterally, even in higher dosages) is “does not increase the gastric acid secretion”.
